Measurements reported in US4797472A, “New peptide derivatives” (KabiVitrum AB, priority 1986, dated 1989).
Square brackets hold non-standard residues; d marks the D form. Peptide text beside a SMILES is read from it. * marks the point of attachment. pNA = O=[N+]([O-])c1ccc(N*)cc1; Ms = CS(=O)(=O)*

Tests used:
FXa human = molecular target: T1, FXa human (Homo sapiens, UniProt P00742); experiment: Determination of kinetic constants for FXa human (plasma activated with RVV+CaCl2); assay type: biochemical; conditions: for Km: substrate 0.1-0.7 mmol/l, trisbuffer pH 7.0, I=0.25, polybrene, 37° C.
T1 construct: from tissue; host or cells: human plasma
Experimental: The kinetic data for the substrates are determined by measuring the initial velocity of hydrolysis (Vi) at different substrate concentrations (Si) and at constant enzyme concentrations (Eo). The binding constant (Km) and the maximum velocity (Vmax) are obtained in known manner from Lineweaver-Burk-plot, then the Kcat is calculated (Hemker H. C. loc. cit.)
The substrates in concentrations between 0.1-0.7 mmol/l (Si) are mixed with FXa human plasma and treated according to the method as described by Aurell; L., et al. (Perspectives in Hemostatis, Ed. Fareed J. et al, New York, Pergamon Press 1981, p. 382-388).
10 μl test plasma, control or standard and 200 μl trisbuffer solution (0.05 mol/l tris, pH 7.0, I=0.25 (NaCl)), polybrene (0.1 g/l) are mixed and incubated at 37° C. for 2-4 minutes. 200 μl substrate (37° C.) in concentrations between 0.1-0.7 mmol/l dissolved in trisbuffer solution prepared according to the above are added. The mixture is well stirred and within 30 seconds 200 μl RVV+CaCl2 (20°-25° C.) are added and the mixture is stirred. The absorbance change is measured at once in a spectrophotometer at 405 nm and 37° C.

Thrombin bovine = molecular target: T2, Thrombin bovine (Bos taurus, UniProt P00735); experiment: Determination of thrombin sensitivity; assay type: biochemical; conditions: for Km: substrate 0.1-0.4 mmol/l
T2 construct: Thrombin bovine (KabiVitrum) with a constant concentration E0 =1.3 nmol/l; purchased KabiVitrum

FXa bovine = FXa bovine (Bos taurus, UniProt P00743); experiment: Determination of the kinetic constants for FXa bovine (chromogenic/fluorogenic substrate hydrolysis)
Experimental: Enzymes and substrates are mixed in a buffer solution at -37° C. The absorbance change per minute is measured at 405 nm in a spectrophotometer (pNA-substrate) or in a spectrofluorometer at excitation wavelength 380 nm and emission wavelength 440 nm (AMC-substrate).
FXa bovine (KabiVitrum) with a constant enzyme concentration
E0 =4 nmol/l (pNA-substrate)
E0 =2 nmol/l (AMC-substrate)
and the substrate in concentrations between 0.01-0.4 mmol/l (Si) are mixed in a trisbuffer solution 0.05 mol/l, pH=8.3, I=0.25 (NaCl) at 37° C. Absorbance change per minute is measured at 405 nm in a spectrophotometer for pNA-substrate and in a spectrofluorometer at emission wavelength 440 nm for AMC-substrate, respectively.

[1] = Thrombin bovine E0=1.3 nmol/l, trisbuffer pH 8.3, I=0.25, 37° C.
[2] = trisbuffer pH 7.0, I=0.25, 37° C.

FXa bovine, sequence (P00743 234-492 limits assumed): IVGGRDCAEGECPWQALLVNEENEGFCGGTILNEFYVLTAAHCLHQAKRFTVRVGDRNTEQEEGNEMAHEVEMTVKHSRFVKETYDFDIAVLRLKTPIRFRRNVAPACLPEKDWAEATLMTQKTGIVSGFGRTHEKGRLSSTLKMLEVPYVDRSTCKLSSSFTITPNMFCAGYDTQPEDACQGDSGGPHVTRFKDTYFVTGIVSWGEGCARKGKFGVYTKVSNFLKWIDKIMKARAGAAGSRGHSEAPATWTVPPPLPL
FXa bovine, sequence (P00743 41-180 partner limits assumed): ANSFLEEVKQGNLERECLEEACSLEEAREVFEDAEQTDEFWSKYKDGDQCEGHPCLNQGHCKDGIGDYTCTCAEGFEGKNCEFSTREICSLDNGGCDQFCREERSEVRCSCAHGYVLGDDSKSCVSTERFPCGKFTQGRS
T1 sequence (P00742 235-488 limits assumed): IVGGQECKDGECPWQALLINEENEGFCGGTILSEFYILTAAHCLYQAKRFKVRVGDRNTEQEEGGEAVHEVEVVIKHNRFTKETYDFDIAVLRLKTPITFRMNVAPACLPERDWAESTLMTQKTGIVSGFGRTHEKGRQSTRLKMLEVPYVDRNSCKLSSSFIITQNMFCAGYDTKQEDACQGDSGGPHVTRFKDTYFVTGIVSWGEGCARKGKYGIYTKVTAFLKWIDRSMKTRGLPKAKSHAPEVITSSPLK
T1 sequence (P00742 41-179 partner limits assumed): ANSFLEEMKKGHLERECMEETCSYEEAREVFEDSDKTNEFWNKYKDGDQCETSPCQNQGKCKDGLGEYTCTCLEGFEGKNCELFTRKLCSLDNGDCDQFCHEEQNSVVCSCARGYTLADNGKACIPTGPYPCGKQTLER

Molecule: CC(C)C[C@@H](NS(C)(=O)=O)C(=O)NCC(=O)N[C@@H](CCCNC(=N)N)C(=O)Nc1ccc([N+](=O)[O-])cc1 [CBS 31.39, CH3 SO2 --D--Leu--Gly--Arg--pNA.AcOH] (Ms-[dL]-Gly-Arg-pNA)
- Km (FXa human): 1060 µM
- Km (Thrombin bovine; [1]): 230 µM

Molecule: CCS(=O)(=O)N[C@H](CCCNC(=N)N)C(=O)NCC(=O)N[C@@H](CCCNC(=N)N)C(=O)Nc1ccc([N+](=O)[O-])cc1 [Example 4, N^α --Ets--D--Arg--Gly--Arg--pNA.2HCl]
- Km (FXa human): 340 µM
- Km (Thrombin bovine; [1]): 410 µM

Molecule: Bz--Ile--Glu--(γ--OR)--Gly--ARg--pNA.HCl [Example S-2222]
- Km (FXa human): 1970 µM
- Vmax (FXa human; [2]): 46 µmol/L/min
- Vmax /Km (FXa human; [2]): 0.023 min⁻¹
- Km (FXa bovine; FXa bovine E0=4 nmol/l (pNA-substrate) or 2 nmol/l (AMC-substrate), substrate 0.01-0.4 mmol/l, trisbuffer 0.05 mol/l, pH 8.3, I=0.25, 37° C.): 510 µM
- Kcat (FXa bovine; FXa bovine E0=4 nmol/l (pNA-substrate) or 2 nmol/l (AMC-substrate), trisbuffer pH 8.3, I=0.25, 37° C.): 180 sek^-1
- Kcat /Km (selectivity constant) (FXa bovine; FXa bovine, trisbuffer pH 8.3, I=0.25, 37° C.): 0.35 l/μmol · sek
- ratio for the selectivity constant FXa bovine through thrombin (Thrombin bovine; Kcat/Km FXa bovine divided by Kcat/Km thrombin bovine): 19.4
- Km (Thrombin bovine; [1]): 710 µM
- Kcat (Thrombin bovine; [1]): 13 sek^-1
- Kcat /Km (Thrombin bovine; Thrombin bovine, trisbuffer pH 8.3, I=0.25, 37° C.): 0.018 1/μmol · sek
